Measured values from US11427558B1, “Indazoles and azaindazoles as LRRK2 inhibitors” (ESCAPE Bio, Inc., priority 2019, dated 2022).

Key:
[1] = biological target: Recombinant G2019S-LRRK2 protein (Homo sapiens (Human), UniProt Q5S007, G2019S); test: LRRK2 kinase activity, LanthaScreen TR-FRET assay (G2019S); format: biochemical; conditions: LRRKtide 400 nM, 25 μM ATP, 60 min
Method in brief: (§1)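 Recombinant human wild-type or G2019S LRRK2 phosphorylated fluorescein-labelled LRRKtide (ERM-based) with ATP and serially diluted compound for 60 min at room temperature.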

[2] = biological target: Recombinant wild type LRRK2 protein (Homo sapiens (Human), UniProt Q5S007); test: LRRK2 kinase activity, LanthaScreen TR-FRET assay (wild type); format: biochemical; conditions: LRRKtide 400 nM, 25 μM ATP, 60 min; read-out: LRRK2 WT IC50
Method in brief: as §1

Recombinant wild type LRRK2 protein, sequence (Q5S007 whole entry): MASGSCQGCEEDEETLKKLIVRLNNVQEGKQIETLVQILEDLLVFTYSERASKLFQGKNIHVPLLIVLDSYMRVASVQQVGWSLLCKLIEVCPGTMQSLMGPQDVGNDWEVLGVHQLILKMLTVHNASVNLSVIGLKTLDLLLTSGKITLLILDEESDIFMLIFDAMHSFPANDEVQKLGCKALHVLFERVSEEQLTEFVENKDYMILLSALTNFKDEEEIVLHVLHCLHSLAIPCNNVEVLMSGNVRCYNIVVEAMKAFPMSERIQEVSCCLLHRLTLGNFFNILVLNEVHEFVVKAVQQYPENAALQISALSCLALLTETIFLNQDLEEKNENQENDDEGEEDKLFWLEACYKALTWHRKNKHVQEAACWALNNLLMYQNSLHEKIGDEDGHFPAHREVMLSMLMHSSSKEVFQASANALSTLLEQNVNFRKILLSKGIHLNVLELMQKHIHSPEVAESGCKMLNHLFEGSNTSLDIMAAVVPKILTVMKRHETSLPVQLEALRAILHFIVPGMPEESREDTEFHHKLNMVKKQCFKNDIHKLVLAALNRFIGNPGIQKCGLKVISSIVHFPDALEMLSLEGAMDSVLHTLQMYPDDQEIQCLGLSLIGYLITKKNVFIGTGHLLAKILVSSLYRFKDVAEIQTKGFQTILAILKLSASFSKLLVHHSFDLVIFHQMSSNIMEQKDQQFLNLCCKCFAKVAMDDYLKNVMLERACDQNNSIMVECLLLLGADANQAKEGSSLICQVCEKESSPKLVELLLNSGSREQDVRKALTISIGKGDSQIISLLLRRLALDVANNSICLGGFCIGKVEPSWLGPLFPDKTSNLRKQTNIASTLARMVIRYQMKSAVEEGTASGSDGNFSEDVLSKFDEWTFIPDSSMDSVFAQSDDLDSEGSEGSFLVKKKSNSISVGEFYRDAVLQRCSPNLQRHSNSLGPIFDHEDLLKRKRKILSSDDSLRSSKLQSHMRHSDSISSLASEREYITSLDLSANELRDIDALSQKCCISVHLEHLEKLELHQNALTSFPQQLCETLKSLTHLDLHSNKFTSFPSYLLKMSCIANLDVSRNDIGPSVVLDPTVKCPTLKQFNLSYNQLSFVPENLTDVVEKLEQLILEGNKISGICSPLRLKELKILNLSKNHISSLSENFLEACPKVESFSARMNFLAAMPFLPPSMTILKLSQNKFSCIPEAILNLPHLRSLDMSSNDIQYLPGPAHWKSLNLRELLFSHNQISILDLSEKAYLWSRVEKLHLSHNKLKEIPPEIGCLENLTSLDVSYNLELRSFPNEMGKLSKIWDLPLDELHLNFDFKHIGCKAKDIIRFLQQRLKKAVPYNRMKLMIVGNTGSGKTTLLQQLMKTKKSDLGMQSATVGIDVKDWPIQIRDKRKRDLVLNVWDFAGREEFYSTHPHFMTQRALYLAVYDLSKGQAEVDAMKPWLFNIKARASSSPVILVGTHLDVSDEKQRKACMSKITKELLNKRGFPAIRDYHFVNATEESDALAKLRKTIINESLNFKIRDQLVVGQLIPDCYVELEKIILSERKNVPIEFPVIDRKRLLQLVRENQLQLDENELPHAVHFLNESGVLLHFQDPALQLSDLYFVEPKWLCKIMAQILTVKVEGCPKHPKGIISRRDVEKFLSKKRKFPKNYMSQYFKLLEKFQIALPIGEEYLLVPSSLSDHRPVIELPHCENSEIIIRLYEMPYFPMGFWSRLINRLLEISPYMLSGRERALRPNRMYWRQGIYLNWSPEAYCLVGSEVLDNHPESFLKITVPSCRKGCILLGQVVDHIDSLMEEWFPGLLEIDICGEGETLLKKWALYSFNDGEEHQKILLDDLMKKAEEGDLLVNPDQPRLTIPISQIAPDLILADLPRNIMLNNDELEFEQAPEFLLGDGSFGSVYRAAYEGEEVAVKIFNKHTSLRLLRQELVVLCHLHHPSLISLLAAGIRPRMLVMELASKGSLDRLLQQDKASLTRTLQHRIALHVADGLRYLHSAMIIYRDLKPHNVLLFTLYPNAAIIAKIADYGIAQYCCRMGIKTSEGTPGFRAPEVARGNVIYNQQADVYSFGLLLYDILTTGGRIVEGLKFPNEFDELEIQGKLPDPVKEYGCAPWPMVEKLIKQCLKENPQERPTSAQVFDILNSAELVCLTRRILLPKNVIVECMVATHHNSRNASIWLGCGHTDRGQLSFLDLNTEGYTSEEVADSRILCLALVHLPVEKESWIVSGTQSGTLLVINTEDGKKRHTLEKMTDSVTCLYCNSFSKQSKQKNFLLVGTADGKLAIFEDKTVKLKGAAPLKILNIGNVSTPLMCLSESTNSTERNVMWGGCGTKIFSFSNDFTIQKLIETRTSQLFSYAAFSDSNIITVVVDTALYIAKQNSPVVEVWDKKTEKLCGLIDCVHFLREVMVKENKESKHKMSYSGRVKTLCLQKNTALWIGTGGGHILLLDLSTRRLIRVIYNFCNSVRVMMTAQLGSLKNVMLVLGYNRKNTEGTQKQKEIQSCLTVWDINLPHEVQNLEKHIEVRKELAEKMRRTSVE
Recombinant G2019S-LRRK2 protein, sequence (Q5S007 whole entry G2019S): as the sequence (Q5S007 whole entry) above, with G2019S counted along it

Row | SMILES | IC50 [1] | IC50 [2]
1 | Cc1cc(C#N)cnc1C(=O)Nc1ccc2[nH]nc(NC(=O)c3ccccc3)c2c1 [Example 135, N-(3-Benzamido-1H-indazol-5-yl)-5-cyano-3-methylpicolinamide] | 100 to 1000 nM | 1000 to 10000 nM
2 | Cc1cc(C#N)cnc1C(=O)Nc1ccc2[nH]nc(-n3cccn3)c2c1 [Example 136, N-(3-(1H-Pyrazol-1-yl)-1H-indazol-5-yl)-5-cyano-3-methylpicolinamide] | 100 to 1000 nM | 1000 to 10000 nM
3 | Cc1n[nH]c(C#N)c1C(=O)Nc1ccc2[nH]nc(-c3ccoc3)c2c1 [Example 137, 5-Cyano-N-(3-(furan-3-yl)-1H-indazol-5-yl)-3-methyl-1H-pyrazole-4-carboxamide] | < 100 nM | < 100 nM
4 | N#Cc1cnc(C(=O)Nc2ccc3[nH]nc(-c4ccoc4)c3c2)c(Br)c1 [Example 138, 3-Bromo-5-cyano-N-(3-(furan-3-yl)-1H-indazol-5-yl)picolinamide] | < 100 nM | < 100 nM
5 | Cc1cc(C#N)cnc1C(=O)Nc1ccc2[nH]nc(-c3ccc(Cl)s3)c2c1 [Example 139, N-(3-(5-Chlorothiophen-2-yl)-1H-indazol-5-yl)-5-cyano-3-methylpicolinamide] | < 100 nM | 1000 to 10000 nM
6 | Cc1ncc(-c2n[nH]c3ccc(NC(=O)c4ncc(C#N)cc4C)cc23)s1 [Example 140, 5-Cyano-3-methyl-N-(3-(2-methylthiazol-5-yl)-1H-indazol-5-yl)picolinamide] | < 100 nM | < 100 nM
7 | Cc1ccc(-c2n[nH]c3ccc(NC(=O)c4ncc(C#N)cc4C)cc23)o1 [Example 141, 5-Cyano-3-methyl-N-(3-(5-methylfuran-2-yl)-1H-indazol-5-yl)picolinamide] | < 100 nM | < 100 nM
8 | N#Cc1ccc(C(=O)Nc2ccc3[nH]nc(-c4ccoc4)c3c2)c2ncccc12 [Example 142, 5-Cyano-N-(3-(furan-3-yl)-1H-indazol-5-yl)quinoline-8-carboxamide] | < 100 nM | 100 to 1000 nM
9 | Cc1cc(C#N)cnc1C(=O)Nc1cc(F)c2[nH]nc(-c3ccoc3)c2c1 [Example 143, 5-Cyano-N-(7-fluoro-3-(furan-3-yl)-1H-indazol-5-yl)-3-methylpicolinamide] | < 100 nM | 100 to 1000 nM
10 | N#Cc1ccnc(C(=O)Nc2ccc3[nH]nc(-c4ccoc4)c3c2)c1Cl [Example 144, 3-Chloro-4-cyano-N-(3-(furan-3-yl)-1H-indazol-5-yl)picolinamide] | < 100 nM | < 100 nM
11 | Cc1nc(C#N)cnc1C(=O)Nc1ccc2[nH]nc(-c3ccoc3)c2c1 [Example 145, 5-Cyano-N-(3-(furan-3-yl)-1H-indazol-5-yl)-3-methylpyrazine-2-carboxamide] | < 100 nM | < 100 nM
12 | Cc1cc(C#N)cnc1C(=O)Nc1ccc2[nH]nc(-c3cnoc3)c2c1 [Example 146, 5-Cyano-N-(3-(isoxazol-4-yl)-1H-indazol-5-yl)-3-methylpicolinamide] | < 100 nM | 100 to 1000 nM
13 | Cc1ncc(C#N)nc1C(=O)Nc1ccc2[nH]nc(-c3ccoc3)c2c1 [Example 147, 6-Cyano-N-(3-(furan-3-yl)-1H-indazol-5-yl)-3-methylpyrazine-2-carboxamide] | < 100 nM | < 100 nM
14 | Cc1ccc(C#N)nc1C(=O)Nc1ccc2[nH]nc(-c3ccoc3)c2c1 [Example 148, 6-Cyano-N-(3-(furan-3-yl)-1H-indazol-5-yl)-3-methylpicolinamide] | < 100 nM | < 100 nM
15 | CCc1c(C#N)ccnc1C(=O)Nc1ccc2[nH]nc(-c3ccoc3)c2c1 [Example 149, 4-Cyano-3-ethyl-N-(3-(furan-3-yl)-1H-indazol-5-yl)picolinamide] | < 100 nM | 100 to 1000 nM
16 | C#Cc1cc(C#N)cnc1C(=O)Nc1ccc2[nH]nc(-c3ccoc3)c2c1 [Example 150] | 100 to 1000 nM | 100 to 1000 nM
17 | Cc1cc(C#N)cnc1C(=O)Nc1ccc2[nH]nc(-c3ccc(=O)n(C)c3)c2c1 [Example 151, 5-Cyano-3-methyl-N-(3-(1-methyl-6-oxo-1,6-dihydropyridin-3-yl)-1H-indazol-5-yl)picolinamide] | < 100 nM | 100 to 1000 nM
18 | Cc1cc(C#N)cnc1C(=O)Nc1ccc2[nH]nc(-c3ccn(C)c(=O)c3)c2c1 [Example 152, 5-cyano-3-methyl-N-(3-(1-methyl-2-oxo-1,2-dihydropyridin-4-yl)-1H-indazol-5-yl)picolinamide] | 100 to 1000 nM | 1000 to 10000 nM
19 | Cc1cc(C#N)cnc1C(=O)Nc1ccc2[nH]nc(-c3ccn(C)n3)c2c1 [Example 153, 5-Cyano-3-methyl-N-(3-(1-methyl-1H-pyrazol-3-yl)-1H-indazol-5-yl)picolinamide] | 100 to 1000 nM | 1000 to 10000 nM

Row | SMILES | IC50 [1] | IC50 [2]
20 | N#Cc1cnc(C(=O)Nc2ccc3[nH]nc(-c4ccoc4)c3c2)c(O)c1 [Example 154, 5-Cyano-N-(3-(furan-3-yl)-1H-indazol-5-yl)-3-hydroxypicolinamide] | < 100 nM | 100 to 1000 nM
21 | Cc1cc(C#N)cnc1C(=O)Nc1cc2c(-c3ccoc3)n[nH]c2cn1 [Example 155] | < 100 nM | 1000 to 10000 nM
22 | Cc1cc(C#N)cnc1C(=O)Nc1ccc2[nH]nc(-c3cscn3)c2c1 [Example 156, 5-Cyano-3-methyl-N-(3-(thiazol-4-yl)-1H-indazol-5-yl)picolinamide] | 100 to 1000 nM | 100 to 1000 nM
23 | Cc1c(C#N)cnc(C(=O)Nc2ccc3[nH]nc(-c4cnn(C(F)F)c4)c3c2)c1C [Example 157, 5-Cyano-N-(3-(1-(difluoromethyl)-1H-pyrazol-4-yl)-1H-indazol-5-yl)-3,4-dimethylpicolinamide] | < 100 nM | < 100 nM
24 | Cc1c(C#N)cnc(C(=O)Nc2ccc3[nH]nc(-c4cnco4)c3c2)c1C [Example 158, 5-Cyano-3,4-dimethyl-N-(3-(oxazol-5-yl)-1H-indazol-5-yl)picolinamide] | < 100 nM | < 100 nM
25 | COc1cc(-c2n[nH]c3ccc(NC(=O)c4ncc(C#N)c(C)c4C)cc23)ccn1 [Example 159, 5-Cyano-N-(3-(2-methoxypyridin-4-yl)-1H-indazol-5-yl)-3,4-dimethylpicolinamide] | < 100 nM | < 100 nM
26 | Cc1cc(C#N)cnc1C(=O)Nc1ccc2[nH]nc(-c3cnsc3)c2c1 [Example 160, 5-Cyano-N-(3-(isothiazol-4-yl)-1H-indazol-5-yl)-3-methylpicolinamide] | < 100 nM | < 100 nM
27 | Cc1cc(C#N)cnc1C(=O)Nc1ncc2[nH]nc(-c3ccoc3)c2n1 [Example 161, 5-Cyano-N-(3-(furan-3-yl)-1H-pyrazolo[4,3-d]pyrimidin-5-yl)-3-methylpicolinamide] | 100 to 1000 nM | 1000 to 10000 nM
28 | Cc1cc(C#N)nnc1C(=O)Nc1ccc2[nH]nc(-c3ccoc3)c2c1 [Example 162, 6-Cyano-N-(3-(furan-3-yl)-1H-indazol-5-yl)-4-methylpyridazine-3-carboxamide] | < 100 nM | 100 to 1000 nM
29 | N#Cc1ccc(F)c(C(=O)Nc2ccc3[nH]nc(-c4cnn(C(F)F)c4)c3c2)c1F [Example 163, 3-Cyano-N-(3-(1-(difluoromethyl)-1H-pyrazol-4-yl)-1H-indazol-5-yl)-2,6-difluorobenzamide] | < 100 nM | < 100 nM
30 | COc1c(C#N)cccc1C(=O)Nc1ccc2[nH]nc(-c3cnn(C(F)F)c3)c2c1 [Example 164, 3-Cyano-N-(3-(1-(difluoromethyl)-1H-pyrazol-4-yl)-1H-indazol-5-yl)-2-methoxybenzamide] | < 100 nM | < 100 nM
31 | N#Cc1cccc(C(=O)Nc2ccc3[nH]nc(-c4cnn(C(F)F)c4)c3c2)c1F [Example 167, 3-Cyano-N-(3-(1-(difluoromethyl)-1H-pyrazol-4-yl)-1H-indazol-5-yl)-2-fluorobenzamide] | < 100 nM | < 100 nM
32 | Cc1c(C#N)cnc(C(=O)Nc2ccc3[nH]nc(-c4cnoc4)c3c2)c1C [Example 168, 5-Cyano-N-(3-(isoxazol-4-yl)-1H-indazol-5-yl)-3,4-dimethylpicolinamide] | < 100 nM | < 100 nM
33 | Cc1c(C#N)cnc(C(=O)Nc2ccc3[nH]nc(-c4cnn(C(F)(F)F)c4)c3c2)c1C [Example 169, 5-Cyano-3,4-dimethyl-N-(3-(1-(trifluoromethyl)-1H-pyrazol-4-yl)-1H-indazol-5-yl)picolinamide] | < 100 nM | < 100 nM
34 | COc1cc(-c2n[nH]c3ccc(NC(=O)c4ccnc(C#N)c4F)cc23)ccn1 [Example 170, 2-Cyano-3-fluoro-N-(3-(2-methoxypyridin-4-yl)-1H-indazol-5-yl)isonicotinamide] | < 100 nM | 100 to 1000 nM
35 | Cc1c(C#N)cnc(C(=O)Nc2ccc3[nH]nc(-c4cncc(Cl)c4)c3c2)c1C [Example 171, N-(3-(5-Chloropyridin-3-yl)-1H-indazol-5-yl)-5-cyano-3,4-dimethylpicolinamide] | < 100 nM | < 100 nM
36 | Cc1c(C#N)cnc(C(=O)Nc2ccc3[nH]nc(-c4cnn(CF)c4)c3c2)c1C [Example 172, 5-Cyano-N-(3-(1-(fluoromethyl)-1H-pyrazol-4-yl)-1H-indazol-5-yl)-3,4-dimethylpicolinamide] | < 100 nM | < 100 nM
37 | N#Cc1cccc(C(=O)Nc2ccc3[nH]nc(-c4ccoc4)c3c2)c1C(F)(F)F [Example 173, 3-Cyano-N-(3-(furan-3-yl)-1H-indazol-5-yl)-2-(trifluoromethyl)benzamide] | < 100 nM | < 100 nM
38 | Cc1ncc(-c2n[nH]c3ccc(NC(=O)c4ncc(C#N)c(C)c4C)cc23)o1 [Example 174, 5-Cyano-3,4-dimethyl-N-(3-(2-methyloxazol-5-yl)-1H-indazol-5-yl)picolinamide] | < 100 nM | < 100 nM
